From ChEMBL document CHEMBL3399937, “(18)F-AmBF3-MJ9: a novel radiofluorinated bombesin derivative for prostate cancer imaging” (Bioorg Med Chem, 2015)

Assays:
Settings in all cases: in vivo
Intestine [1] = assay: Biodistribution in intestine of NSG mouse xenografted with human PC-3 tumor at 0.37 to 0.74 MBq, iv after 0.5 hrs by gamma counting analysis; type: ADME, organism-based
Tumour [2] = assay: Biodistribution in tumor of NSG mouse xenografted with human PC-3 tumor at 0.37 to 0.74 MBq, iv after 0.5 hrs by gamma counting analysis; type: ADME, organism-based, Neoplasm
Mus musculus [3] = assay: Biodistribution in testis of NSG mouse xenografted with human PC-3 tumor at 0.37 to 0.74 MBq, iv after 1 hr by gamma counting analysis; type: ADME, organism-based
Tumour [4] = assay: Biodistribution in tumor of NSG mouse xenografted with human PC-3 tumor at 0.37 to 0.74 MBq, iv after 1 hr by gamma counting analysis; type: ADME, organism-based, Neoplasm
Spleen = assay: Biodistribution in spleen of NSG mouse xenografted with human PC-3 tumor at 0.37 to 0.74 MBq, iv after 1 hr by gamma counting analysis; type: ADME, organism-based
Mus musculus [5] = assay: Biodistribution in adrenal gland of NSG mouse xenografted with human PC-3 tumor at 0.37 to 0.74 MBq, iv after 1 hr by gamma counting analysis; type: ADME, organism-based
Intestine [6] = assay: Biodistribution in intestine of NSG mouse xenografted with human PC-3 tumor at 0.37 to 0.74 MBq, iv after 1 hr by gamma counting analysis; type: ADME, organism-based
Mus musculus [7] = assay: Biodistribution in adrenal gland of NSG mouse xenografted with human PC-3 tumor at 0.37 to 0.74 MBq, iv after 0.5 hrs by gamma counting analysis; type: ADME, organism-based
Tumour [8] = assay: Biodistribution in tumor of NSG mouse xenografted with human PC-3 tumor at 0.37 to 0.74 MBq, iv after 1 hr by gamma counting analysis in presence of BAY86-7548; type: ADME, organism-based, Neoplasm
Brain [9] = assay: Biodistribution in brain of NSG mouse xenografted with human PC-3 tumor at 0.37 to 0.74 MBq, iv after 0.5 hrs by gamma counting analysis; type: ADME, organism-based
Brain [10] = assay: Biodistribution in brain of NSG mouse xenografted with human PC-3 tumor at 0.37 to 0.74 MBq, iv after 1 hr by gamma counting analysis; type: ADME, organism-based
Blood [11] = assay: Biodistribution in blood of NSG mouse xenografted with human PC-3 tumor at 0.37 to 0.74 MBq, iv after 2 hrs by gamma counting analysis; type: ADME, organism-based
Liver [12] = assay: Biodistribution in liver of NSG mouse xenografted with human PC-3 tumor at 0.37 to 0.74 MBq, iv after 0.5 hrs by gamma counting analysis; type: ADME, organism-based
Liver [13] = assay: Biodistribution in liver of NSG mouse xenografted with human PC-3 tumor at 0.37 to 0.74 MBq, iv after 1 hr by gamma counting analysis in presence of BAY86-7548; type: ADME, organism-based
Pancreas = assay: Biodistribution in pancreas of NSG mouse xenografted with human PC-3 tumor at 0.37 to 0.74 MBq, iv after 0.5 hrs by gamma counting analysis; type: ADME, organism-based
[14] = Biodistribution in fat of NSG mouse xenografted with human PC-3 tumor at 0.37 to 0.74 MBq, iv after 1 hr by gamma counting analysis; type: ADME, organism-based, Adipose tissue
Mus musculus [15] = assay: Biodistribution in seminal gland of NSG mouse xenografted with human PC-3 tumor at 0.37 to 0.74 MBq, iv after 0.5 hrs by gamma counting analysis; type: ADME, organism-based
Tumour [16] = assay: Biodistribution in tumor of NSG mouse xenografted with human PC-3 tumor at 0.37 to 0.74 MBq, iv after 2 hrs by gamma counting analysis; type: ADME, organism-based, Neoplasm
Muscle tissue [17] = assay: Biodistribution in muscle of NSG mouse xenografted with human PC-3 tumor at 0.37 to 0.74 MBq, iv after 1 hr by gamma counting analysis in presence of BAY86-7548; type: ADME, organism-based
Kidney [18] = assay: Biodistribution in kidney of NSG mouse xenografted with human PC-3 tumor at 0.37 to 0.74 MBq, iv after 1 hr by gamma counting analysis; type: ADME, organism-based
Mus musculus [19] = assay: Biodistribution in adrenal gland of NSG mouse xenografted with human PC-3 tumor at 0.37 to 0.74 MBq, iv after 1 hr by gamma counting analysis in presence of BAY86-7548; type: ADME, organism-based
[20] = Biodistribution in fat of NSG mouse xenografted with human PC-3 tumor at 0.37 to 0.74 MBq, iv after 1 hr by gamma counting analysis in presence of BAY86-7548; type: ADME, organism-based, Adipose tissue
Mus musculus [21] = assay: Biodistribution in testis of NSG mouse xenografted with human PC-3 tumor at 0.37 to 0.74 MBq, iv after 1 hr by gamma counting analysis in presence of BAY86-7548; type: ADME, organism-based
Muscle tissue [22] = assay: Biodistribution in muscle of NSG mouse xenografted with human PC-3 tumor at 0.37 to 0.74 MBq, iv after 2 hrs by gamma counting analysis; type: ADME, organism-based
Heart [23] = assay: Biodistribution in heart of NSG mouse xenografted with human PC-3 tumor at 0.37 to 0.74 MBq, iv after 2 hrs by gamma counting analysis; type: ADME, organism-based
Kidney [24] = assay: Biodistribution in kidney of NSG mouse xenografted with human PC-3 tumor at 0.37 to 0.74 MBq, iv after 1 hr by gamma counting analysis in presence of BAY86-7548; type: ADME, organism-based
Kidney [25] = assay: Biodistribution in kidney of NSG mouse xenografted with human PC-3 tumor at 0.37 to 0.74 MBq, iv after 2 hrs by gamma counting analysis; type: ADME, organism-based
Mus musculus [26] = assay: Biodistribution in testis of NSG mouse xenografted with human PC-3 tumor at 0.37 to 0.74 MBq, iv after 2 hrs by gamma counting analysis; type: ADME, organism-based
Liver [27] = assay: Biodistribution in liver of NSG mouse xenografted with human PC-3 tumor at 0.37 to 0.74 MBq, iv after 2 hrs by gamma counting analysis; type: ADME, organism-based
Heart [28] = assay: Biodistribution in heart of NSG mouse xenografted with human PC-3 tumor at 0.37 to 0.74 MBq, iv after 1 hr by gamma counting analysis in presence of BAY86-7548; type: ADME, organism-based
Bone = assay: Biodistribution in bone of NSG mouse xenografted with human PC-3 tumor at 0.37 to 0.74 MBq, iv after 0.5 hrs by gamma counting analysis; type: ADME, organism-based, Bone element
Blood [29] = assay: Biodistribution in blood of NSG mouse xenografted with human PC-3 tumor at 0.37 to 0.74 MBq, iv after 1 hr by gamma counting analysis; type: ADME, organism-based

Compound: CC(C)C[C@H](NC(=O)C[C@H](O)[C@H](CC(C)C)NC(=O)[C@H](Cc1cnc[nH]1)NC(=O)CNC(=O)[C@@H](NC(=O)[C@H](C)NC(=O)[C@H](Cc1c[nH]c2ccccc12)NC(=O)[C@H](CCC(N)=O)NC(=O)[C@@H](Cc1ccccc1)NC(=O)CN1CCC(NC(=O)Cn2cc(C[N+](C)(C)C[B-](F)(F)[17F])nn2)CC1)C(C)C)C(N)=O
- Drug uptake (Intestine [1]): 4.28 % ID/g
- Drug uptake (Tumour [2]): 2.77 % ID/g
- Drug uptake (Mus musculus [3]): 0.25 % ID/g
- Drug uptake (Tumour [4]): 1.47 % ID/g
- Drug uptake (Spleen): 0.33 % ID/g
- Drug uptake (Mus musculus [5]): 0.5 % ID/g
- Drug uptake (Intestine [6]): 6.3 % ID/g
- Drug uptake (Mus musculus [7]): 1.16 % ID/g
- Drug uptake (Tumour [8]): 0.54 % ID/g
- Drug uptake (Brain [9]): 0.07 % ID/g
- Drug uptake (Brain [10]): 0.02 % ID/g
- Drug uptake (Blood [11]): 0.32 % ID/g
- Drug uptake (Liver [12]): 2.63 % ID/g
- Drug uptake (Liver [13]): 1.05 % ID/g
- Drug uptake (Pancreas): 8.04 % ID/g
- Drug uptake [14]: 0.07 % ID/g
- Drug uptake (Mus musculus [15]): 0.33 % ID/g
- Drug uptake (Tumour [16]): 2.2 % ID/g
- Drug uptake (Muscle tissue [17]): 0.14 % ID/g
- Drug uptake (Kidney [18]): 2.43 % ID/g
- Drug uptake (Mus musculus [19]): 0.21 % ID/g
- Drug uptake [20]: 0.12 % ID/g
- Drug uptake (Mus musculus [21]): 0.25 % ID/g
- Drug uptake (Muscle tissue [22]): 0.03 % ID/g
- Drug uptake (Heart [23]): 0.06 % ID/g
- Drug uptake (Kidney [24]): 6.66 % ID/g
- Drug uptake (Kidney [25]): 1.46 % ID/g
- Drug uptake (Mus musculus [26]): 0.13 % ID/g
- Drug uptake (Liver [27]): 0.33 % ID/g
- Drug uptake (Heart [28]): 0.18 % ID/g
- Drug uptake (Bone): 0.7 % ID/g
- Drug uptake (Blood [29]): 0.57 % ID/g
